From ChEMBL document CHEMBL1201862, “PubChem BioAssay data set” (2004)
Blank lines part the entries; values can stand above or below the molecule they belong to. Active and inactive are the calls of the source.

Assays:
Steroidogenic factor 1 = Steroidogenic factor 1 (Homo sapiens, UniProt Q13285); assay: Counterscreen for inverse agonists of the liver receptor homolog-1 (LRH-1; NR5A2): Luminescence-based cell-based high throughput dose response assay to identify inverse agonists of the Steroidogenic Factor 1 Nuclear Receptor (SF1; NR5A1).; assay type: functional
[1] = StAR promoter reporter inhibition counter-screen, dose response, counter-screen for LRH-1 inverse agonist project, cell-based, luminescence, luciferase reporter (AID 651969); assay type: functional
[2] = target: Nuclear receptor subfamily 5 group A member 2 (Homo sapiens, UniProt O00482); assay type: functional, cell-based;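 also: HEK293T cells transfected with LRH-1 and a StAR promoter luciferase reporter; potency for inhibitors that lower LRH-1 driven reporter light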
[3] = target: T1, High affinity choline transporter 1 (Homo sapiens, UniProt Q9GZV3); assay: CHT inhibitors, dose response, cell-based, 5-point CRC, membrane potential dye (AID 504840); assay type: functional
T1 sequence (Q9GZV3 whole entry): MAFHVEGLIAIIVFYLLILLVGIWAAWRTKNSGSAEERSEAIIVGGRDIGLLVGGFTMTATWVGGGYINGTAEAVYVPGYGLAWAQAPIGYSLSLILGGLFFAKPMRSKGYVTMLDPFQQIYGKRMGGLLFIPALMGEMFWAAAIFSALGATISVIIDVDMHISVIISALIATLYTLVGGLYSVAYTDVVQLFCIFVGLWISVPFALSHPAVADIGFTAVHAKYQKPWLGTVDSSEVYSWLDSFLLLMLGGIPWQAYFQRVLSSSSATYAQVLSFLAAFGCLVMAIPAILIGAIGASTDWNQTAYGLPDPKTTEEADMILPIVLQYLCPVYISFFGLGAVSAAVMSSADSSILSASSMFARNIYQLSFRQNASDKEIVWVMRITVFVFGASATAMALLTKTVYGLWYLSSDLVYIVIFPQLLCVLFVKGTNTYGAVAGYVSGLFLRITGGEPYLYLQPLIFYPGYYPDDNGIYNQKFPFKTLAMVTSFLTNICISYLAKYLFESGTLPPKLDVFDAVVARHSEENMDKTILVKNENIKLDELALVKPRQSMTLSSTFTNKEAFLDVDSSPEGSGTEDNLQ

[4] = target: T1, High affinity choline transporter 1; assay: CHT inhibitors, dose response, cell-based, 10-point CRC, membrane potential dye (AID 588401); assay type: functional;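 also: membrane potential dye fluorescence of choline-evoked depolarization via CHT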
[5] = target: DNA dC->dU-editing enzyme APOBEC-3A (Homo sapiens, UniProt P31941); assay: SAR analysis of small molecule inhibitors of APOBEC3A DNA Deaminase via a fluorescence-based single-stranded DNA deaminase assay.; assay type: functional; settings: read-out: IC50_Mean
[6] = target: DNA dC->dU-editing enzyme APOBEC-3G (Homo sapiens, UniProt Q9HC16); assay: APOBEC3G deaminase inhibitors, SAR follow-up, biochemical, fluorescence, single-stranded DNA substrate (AID 602136); assay type: functional; settings: read-out: IC50_Mean
[7] = target: T2, Rac GTPase-activating protein 1 (Homo sapiens, UniProt Q9H0H5); assay: MgcRacGAP GTPase-activating activity inhibitors, confirmation, biochemical, ADP Hunter fluorescence, primary and confirmatory (AID 624330); assay type: functional
T2 sequence (Q9H0H5 whole entry): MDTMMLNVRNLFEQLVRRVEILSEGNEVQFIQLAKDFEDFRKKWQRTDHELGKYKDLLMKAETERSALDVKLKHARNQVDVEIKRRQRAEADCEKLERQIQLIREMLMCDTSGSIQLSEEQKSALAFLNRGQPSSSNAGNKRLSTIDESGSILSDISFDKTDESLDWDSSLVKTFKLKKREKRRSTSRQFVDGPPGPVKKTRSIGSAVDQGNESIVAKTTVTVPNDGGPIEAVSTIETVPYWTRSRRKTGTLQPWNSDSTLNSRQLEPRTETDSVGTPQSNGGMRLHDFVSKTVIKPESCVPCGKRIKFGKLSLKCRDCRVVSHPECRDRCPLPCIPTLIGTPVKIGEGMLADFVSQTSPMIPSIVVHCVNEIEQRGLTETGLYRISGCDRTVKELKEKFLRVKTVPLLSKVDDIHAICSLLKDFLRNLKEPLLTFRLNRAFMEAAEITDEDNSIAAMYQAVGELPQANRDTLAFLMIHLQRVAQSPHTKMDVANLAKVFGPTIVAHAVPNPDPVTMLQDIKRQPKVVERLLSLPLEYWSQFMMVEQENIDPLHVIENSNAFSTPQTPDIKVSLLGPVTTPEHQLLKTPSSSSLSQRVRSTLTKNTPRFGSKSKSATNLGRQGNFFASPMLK

[8] = HeLa cell cytotoxicity, dose response, cytotoxicity control for MgcRacGAP inhibitor project (AID 624300); assay type: functional
Melanocortin receptor 4 = Melanocortin receptor 4 (Homo sapiens, UniProt P32245); assay type: functional, cell-based;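 also: Cell-based assay with luminescence read-out, confirmatory dose-response testing for agonist activity of biased ligands at MC4R; human U2OS cells with tagged receptor and beta-arrestin; potency of agonists that increase receptor coupling to beta-arrestin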
Streptococcus = assay: Group A Streptococcus viability loss, dose response, counter-screen for streptokinase expression inhibitor project, luminescence, BacTiterGlo (AID 1915); assay type: functional, organism-based;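 also: potency for reduction of bacterial viability or growth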
[9] = test system: Streptococcus sp. 'group A'; assay: growth inhibition of control SK(-) GAS strain, dose response, counter-screen for streptokinase expression inhibitor project, luminescence, kanamycin, BacTiterGlo, confirmation (AID 1900); assay type: functional, organism-based
[10] = target: T3, Sentrin-specific protease 8 (Homo sapiens, UniProt Q96LD8); assay: SENP8 protease inhibitors, SAR follow-up, biochemical, luminescence (AID 504501); assay type: functional
T3 sequence (Q96LD8 whole entry): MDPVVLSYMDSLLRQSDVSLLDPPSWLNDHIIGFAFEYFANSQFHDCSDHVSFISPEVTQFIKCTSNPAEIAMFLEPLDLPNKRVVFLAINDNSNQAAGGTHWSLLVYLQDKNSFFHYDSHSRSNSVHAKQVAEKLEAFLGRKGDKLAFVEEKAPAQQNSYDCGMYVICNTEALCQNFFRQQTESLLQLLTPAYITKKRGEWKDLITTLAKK

[11] = target: T4, Sentrin-specific protease 7 (Homo sapiens, UniProt Q9BQF6); assay: SENP7 protease inhibitors, SAR follow-up, biochemical, luminescence (AID 504497); assay type: functional
T4 sequence (Q9BQF6 whole entry): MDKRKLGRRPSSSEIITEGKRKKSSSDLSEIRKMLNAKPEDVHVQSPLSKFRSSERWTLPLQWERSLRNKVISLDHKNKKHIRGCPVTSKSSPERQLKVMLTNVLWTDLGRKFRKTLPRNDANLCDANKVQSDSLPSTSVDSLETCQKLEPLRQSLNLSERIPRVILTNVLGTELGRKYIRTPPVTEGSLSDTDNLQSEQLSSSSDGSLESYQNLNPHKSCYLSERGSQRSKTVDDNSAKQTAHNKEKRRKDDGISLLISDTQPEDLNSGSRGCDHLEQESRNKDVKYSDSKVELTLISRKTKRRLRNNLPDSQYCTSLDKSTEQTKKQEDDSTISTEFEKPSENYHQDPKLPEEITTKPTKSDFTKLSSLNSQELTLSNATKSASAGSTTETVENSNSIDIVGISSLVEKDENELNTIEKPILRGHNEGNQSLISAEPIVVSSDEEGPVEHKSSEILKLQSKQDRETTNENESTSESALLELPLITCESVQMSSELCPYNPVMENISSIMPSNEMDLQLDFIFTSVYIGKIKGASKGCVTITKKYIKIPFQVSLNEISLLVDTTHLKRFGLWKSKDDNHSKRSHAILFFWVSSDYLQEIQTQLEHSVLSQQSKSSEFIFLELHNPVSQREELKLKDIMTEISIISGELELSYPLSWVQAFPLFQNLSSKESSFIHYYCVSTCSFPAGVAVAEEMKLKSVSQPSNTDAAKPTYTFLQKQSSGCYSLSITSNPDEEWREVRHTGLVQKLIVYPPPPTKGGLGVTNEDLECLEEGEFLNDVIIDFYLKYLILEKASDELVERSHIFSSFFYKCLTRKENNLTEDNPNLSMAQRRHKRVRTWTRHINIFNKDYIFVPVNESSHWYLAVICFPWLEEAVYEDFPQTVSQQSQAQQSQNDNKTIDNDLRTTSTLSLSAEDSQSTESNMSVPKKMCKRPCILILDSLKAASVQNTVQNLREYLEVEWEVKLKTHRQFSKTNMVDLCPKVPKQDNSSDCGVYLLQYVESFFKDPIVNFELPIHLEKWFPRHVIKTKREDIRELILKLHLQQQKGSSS

[12] = target: T5, Sentrin-specific protease 6 (Homo sapiens, UniProt Q9GZR1); assay: SAR Analysis of small molecule inhibitors of Sentrin-specific protease 6 (SENP6) using a Luminescent assay. [Related pubchem assays (depositor defined):AID2582, AID2599]; assay type: functional
T5 sequence (Q9GZR1 whole entry): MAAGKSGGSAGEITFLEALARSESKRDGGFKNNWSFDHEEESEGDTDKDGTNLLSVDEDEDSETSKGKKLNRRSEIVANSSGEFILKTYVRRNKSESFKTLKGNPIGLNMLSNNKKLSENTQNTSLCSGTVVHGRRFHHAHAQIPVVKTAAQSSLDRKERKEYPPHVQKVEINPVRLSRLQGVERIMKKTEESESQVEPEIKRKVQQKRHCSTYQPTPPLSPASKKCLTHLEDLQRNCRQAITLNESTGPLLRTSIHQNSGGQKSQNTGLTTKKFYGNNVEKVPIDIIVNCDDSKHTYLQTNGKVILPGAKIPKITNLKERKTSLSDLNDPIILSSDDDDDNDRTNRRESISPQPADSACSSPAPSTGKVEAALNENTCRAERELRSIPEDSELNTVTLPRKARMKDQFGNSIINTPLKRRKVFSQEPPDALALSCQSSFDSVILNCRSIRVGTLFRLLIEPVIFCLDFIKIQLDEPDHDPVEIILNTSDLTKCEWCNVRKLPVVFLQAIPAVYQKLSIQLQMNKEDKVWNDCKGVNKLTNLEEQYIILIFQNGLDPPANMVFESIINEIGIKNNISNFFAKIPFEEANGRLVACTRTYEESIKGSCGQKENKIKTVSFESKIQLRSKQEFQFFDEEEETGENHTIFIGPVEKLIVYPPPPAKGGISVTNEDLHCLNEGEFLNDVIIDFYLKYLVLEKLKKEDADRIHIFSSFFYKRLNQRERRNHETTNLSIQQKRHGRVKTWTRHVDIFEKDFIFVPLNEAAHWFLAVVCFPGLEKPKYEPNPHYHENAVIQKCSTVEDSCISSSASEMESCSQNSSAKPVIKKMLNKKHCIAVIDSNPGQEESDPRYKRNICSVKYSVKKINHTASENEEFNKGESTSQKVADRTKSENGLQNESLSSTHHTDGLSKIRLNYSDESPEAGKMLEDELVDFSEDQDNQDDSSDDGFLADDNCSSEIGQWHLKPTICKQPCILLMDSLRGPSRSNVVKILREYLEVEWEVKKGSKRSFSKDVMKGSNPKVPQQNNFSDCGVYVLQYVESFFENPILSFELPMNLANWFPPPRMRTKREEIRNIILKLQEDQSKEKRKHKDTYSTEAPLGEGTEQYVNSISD

Caspase-3 = target: T6, Caspase-3 (Homo sapiens, UniProt P42574); assay: SAR Analysis of small molecule inhibitors of Sentrin-specific proteases (SENPs) using a Caspase-3 Selectivity assay. [Related pubchem assays (depositor defined):AID2540, AID2599, AID434973, AID489001]; assay type: functional
T6 sequence (P42574 whole entry): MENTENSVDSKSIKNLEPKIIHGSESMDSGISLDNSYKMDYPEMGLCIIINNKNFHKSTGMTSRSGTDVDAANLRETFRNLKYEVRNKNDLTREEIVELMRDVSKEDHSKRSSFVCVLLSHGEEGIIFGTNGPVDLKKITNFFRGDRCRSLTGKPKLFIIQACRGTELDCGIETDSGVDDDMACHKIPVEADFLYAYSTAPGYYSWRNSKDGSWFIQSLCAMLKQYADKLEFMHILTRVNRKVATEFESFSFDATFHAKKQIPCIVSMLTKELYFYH

H9c2 = assay: cells; assay type: functional, cell-based; settings: Rattus norvegicus, H9c2, Myocardium;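 also: confirmatory concentration-response retest of ultra-high-throughput screening hits for modulation of myocardial damage; cell death induced by hydrogen peroxide oxidative stress; compound pretreatment for 60 min then peroxide exposure for 2 h; potency is for protecting the cells against peroxide damage rather than for killing them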
[13] = target: T7, Probable nicotinate-nucleotide adenylyltransferase (Staphylococcus aureus (strain N315), UniProt P65502); assay type: functional, Staphylococcus aureus subsp. aureus N315; settings: read-out: IC50_Mean;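 as to IC50 Mean: confirmatory dose-response retesting of NadD inhibitor hits first found in an ultra-high-throughput screen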
[14] = target: T7, Probable nicotinate-nucleotide adenylyltransferase; assay type: functional, Staphylococcus aureus subsp. aureus N315

Sequence of Steroidogenic factor 1 (Q13285 whole entry): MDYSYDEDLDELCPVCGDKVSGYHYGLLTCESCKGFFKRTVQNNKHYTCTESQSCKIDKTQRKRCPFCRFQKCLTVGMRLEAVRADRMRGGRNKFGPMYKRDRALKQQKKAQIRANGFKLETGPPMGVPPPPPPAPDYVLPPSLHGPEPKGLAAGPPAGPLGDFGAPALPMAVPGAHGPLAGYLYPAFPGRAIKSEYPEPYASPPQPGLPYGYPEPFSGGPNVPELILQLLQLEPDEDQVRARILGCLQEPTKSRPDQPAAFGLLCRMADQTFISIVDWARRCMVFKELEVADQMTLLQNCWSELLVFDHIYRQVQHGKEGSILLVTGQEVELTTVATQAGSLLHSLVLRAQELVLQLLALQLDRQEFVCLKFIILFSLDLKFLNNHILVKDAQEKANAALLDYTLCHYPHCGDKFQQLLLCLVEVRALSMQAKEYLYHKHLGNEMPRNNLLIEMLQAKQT
Sequence of Nuclear receptor subfamily 5 group A member 2 (O00482 whole entry): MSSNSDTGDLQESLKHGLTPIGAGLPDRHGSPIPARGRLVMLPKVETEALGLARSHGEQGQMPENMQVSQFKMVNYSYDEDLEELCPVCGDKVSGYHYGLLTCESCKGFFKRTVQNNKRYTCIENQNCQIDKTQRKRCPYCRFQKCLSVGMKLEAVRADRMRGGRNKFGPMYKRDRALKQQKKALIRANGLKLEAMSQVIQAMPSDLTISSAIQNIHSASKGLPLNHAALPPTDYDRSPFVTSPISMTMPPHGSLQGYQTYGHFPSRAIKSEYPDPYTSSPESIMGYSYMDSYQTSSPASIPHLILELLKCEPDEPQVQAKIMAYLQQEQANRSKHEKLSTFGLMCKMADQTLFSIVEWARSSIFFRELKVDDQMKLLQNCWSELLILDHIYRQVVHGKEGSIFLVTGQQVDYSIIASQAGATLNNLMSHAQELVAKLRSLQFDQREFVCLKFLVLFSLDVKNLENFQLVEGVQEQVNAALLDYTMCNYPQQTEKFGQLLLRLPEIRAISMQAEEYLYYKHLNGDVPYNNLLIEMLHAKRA
Sequence of DNA dC->dU-editing enzyme APOBEC-3G (Q9HC16 whole entry): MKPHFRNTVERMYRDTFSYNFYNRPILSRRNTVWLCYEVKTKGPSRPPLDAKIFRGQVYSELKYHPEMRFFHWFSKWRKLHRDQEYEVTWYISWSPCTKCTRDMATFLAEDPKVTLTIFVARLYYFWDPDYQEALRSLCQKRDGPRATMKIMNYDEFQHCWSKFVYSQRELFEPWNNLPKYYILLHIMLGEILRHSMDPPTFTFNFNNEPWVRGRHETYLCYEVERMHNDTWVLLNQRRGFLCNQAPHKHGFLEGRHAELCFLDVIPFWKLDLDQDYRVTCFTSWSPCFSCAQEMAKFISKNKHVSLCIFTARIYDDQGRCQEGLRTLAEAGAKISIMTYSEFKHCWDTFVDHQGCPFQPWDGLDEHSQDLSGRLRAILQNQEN
Sequence of Melanocortin receptor 4 (P32245 whole entry): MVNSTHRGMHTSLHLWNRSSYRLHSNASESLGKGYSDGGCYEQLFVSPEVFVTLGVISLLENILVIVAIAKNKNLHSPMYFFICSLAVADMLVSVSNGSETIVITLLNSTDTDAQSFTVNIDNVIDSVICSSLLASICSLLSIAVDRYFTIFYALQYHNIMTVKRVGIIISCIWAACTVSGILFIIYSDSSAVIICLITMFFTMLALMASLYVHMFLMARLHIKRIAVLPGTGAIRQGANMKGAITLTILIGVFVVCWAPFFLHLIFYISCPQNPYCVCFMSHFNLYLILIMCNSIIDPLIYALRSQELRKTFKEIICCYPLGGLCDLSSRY
Sequence of DNA dC->dU-editing enzyme APOBEC-3A (P31941 whole entry): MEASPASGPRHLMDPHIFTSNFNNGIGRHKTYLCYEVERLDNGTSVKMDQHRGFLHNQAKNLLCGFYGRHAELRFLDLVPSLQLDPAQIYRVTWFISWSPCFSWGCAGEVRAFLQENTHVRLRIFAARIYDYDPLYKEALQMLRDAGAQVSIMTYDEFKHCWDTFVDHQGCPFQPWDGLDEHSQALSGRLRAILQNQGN

SMILES: CCOC(=O)c1cc2sccc2n1CC(=O)Nc1ccc2c(c1)OCCO2
IC50 (Steroidogenic factor 1): 15.7 µM (inactive) | IC50 [1]: 35.9 µM (inactive) | IC50 [2]: 35.9 µM (inactive)

SMILES: O=C(O)c1ccc(Cl)c2c1C1C=CCC1C(c1ccccc1F)N2 (stereo unspecified)
IC50 [5]: 27.4 µM (inactive) | IC50 [6]: > 99 µM (inactive)

SMILES: CCOc1ccccc1N1C(=O)C(=O)N(CC(=O)c2ccc[nH]2)C1=O
IC50 [5]: > 99 µM (inactive) | IC50 [6]: > 99 µM (inactive)

SMILES: Cc1ccc(NC(=S)NC(=O)c2ccc(-c3ccc(Cl)cc3)o2)c(O)c1
EC50 (Melanocortin receptor 4): > 89.2 µM (inactive) | EC50 (Streptococcus): 9.04 µM (active) | EC50 [9]: 7.63 µM (active)

SMILES: N#Cc1c(NC(=O)c2cnn3cc(Br)cnc23)sc2c1CCC2
IC50 [10]: > 99 µM (inactive) | IC50 [11]: > 99 µM (inactive) | IC50 [12]: > 99 µM (inactive) | IC50 (Caspase-3): > 99 µM (inactive)

SMILES: CCc1cc(O)nc(SCC(=O)Nc2ccc3c(c2)OCCO3)n1
IC50 (Steroidogenic factor 1): 12 µM (inactive) | IC50 [1]: 35.9 µM (inactive) | IC50 [2]: 35.9 µM (inactive)

SMILES: COc1cc(-c2cc(NC=O)c3ncc(-c4cccc(C(F)(F)F)c4)n3c2)cc(OC)c1OC
EC50 (Melanocortin receptor 4): > 89.2 µM (inactive) | IC50 (H9c2): 51.3 µM (inactive)

SMILES: NC(=O)[C@H]1CC2(CC(c3cccc(NC(=O)COc4ccc(Cl)cc4)c3)=NO2)CN1C(=O)CC(c1ccccc1)c1ccccc1 (stereo partly specified)
IC50 [13]: 37.7 µM (active) | IC50 [14]: 12.7 µM (active)

More lines, main results first:

IC50 [3]: 2.4 µM (active) | IC50 [4]: 11.2 µM (active)
SMILES: COc1ccc(CSc2nc3nc(C)cc(C)n3n2)cc1F

IC50 [7]: 22.2 µM (active)
SMILES: COc1cc(/C=C2\SC(Nc3ccccc3OC)=NC2=O)ccc1O
CC50 [8]: 100 µM (active)

IC50 [3]: 0.778 µM (active) | IC50 [4]: 0.409 µM (active)
SMILES: COc1ccccc1NS(=O)(=O)c1ccc(C)c(C(=O)NCC(c2ccco2)N2CCCCC2)c1 (stereo unspecified)

IC50 [11]: 5 µM (active) | IC50 [12]: 13 µM (active) | IC50 (Caspase-3): 18 µM (active)
SMILES: Ic1ccccc1-c1nc(/C=C/c2ccccc2)no1
IC50 [10]: 15 µM (active)
